Test system: HGPS patients
Assay: Kaplan-Meier survival analysis of treated vs. untreated HGPS patients
Format: in vivo, human
Source text: Survival data of untreated subjects was collected from hospital case studies, newspaper articles, and other publicly available databases. “Untreated subjects” were defined as HGPS-diagnosed subjects who had no exposure to HGPS clinical treatment trial medications. In total, data from 155 subjects; including 100 deceased and 55 living, was used in the analysis, the cut-off date for which was Dec. 3, 2012.
“Treated subjects” were defined as all subjects who were enrolled in one or both of two HGPS farnesyltransferase inhibitor (FTI) clinical treatment trials to date, for any length of time. Treatment conditions for the initial, FTI-only, trial are described in Gordon et al., PNAS, 109:16666/16671, 2012. Treatment conditions for the three-drug combination of lonafarnib, pravastatin, and zoledronic acid, are described in Example 1. In total data from 43 subjects; including 4 deceased and 39 living, was included in the analysis.
Kaplan-Meier survival analyses were carried out using SAS statistical analysis software.

Structure (SMILES): NC(=O)N1CCC(CC(=O)N2CCC([C@H]3c4ncc(Br)cc4CCc4cc(Cl)cc(Br)c43)CC2)CC1 [FTI, lonafarnib]
- Mean years of survival, treated vs. untreated (all subject groupings of FIG. 5, FTI only or with pravastatin and zoledronic acid): significant increase in mean years of survival
- Survival of treated vs. untreated patients (Kaplan-Meier) (entire sample, 43 treated (FTI only or with pravastatin and zoledronic acid) vs. 155 untreated, FIG. 1): significant survival benefit

— patent publication US9381203B2, “Combination therapies for treatment of laminopathies, cellular aging, and atherosclerosis” (priority 2013, dated 2016)
